Reference: patent US11446279B2 (priority 2017, dated 2022)
≈ marks a conversion by molar mass, not a printed value. Where two headings read alike, the source gives them in different places.

What was measured:
E. coli (KAN) = test: microbe, parasite or virus in culture; assay type: cell-based, Escherichia coli
E. coli (AMP) = test: MIC against E. coli (AMP); assay type: cell-based, Escherichia coli
E. coli SFGH 207 = test: MIC against E. coli SFGH 207; assay type: cell-based, Escherichia coli
E. coli ATCC25922 = test: MIC against E. coli ATCC25922; assay type: cell-based, Escherichia coli
MRSA = test: MIC against MRSA; assay type: cell-based, Methicillin-resistant Staphylococcus aureus
A. baumannii (Sensitive) = test: MIC against A. baumannii (Sensitive); assay type: cell-based, Acinetobacter baumannii
A. baumannii (Resistant) = test: MIC against A. baumannii (Resistant); assay type: cell-based, Acinetobacter baumannii
P. aeruginosa SFGH 266 = test: MIC against P. aeruginosa SFGH 266; assay type: cell-based, Pseudomonas aeruginosa
P. aeruginosa SFGH 427 = test: MIC against P. aeruginosa SFGH 427; assay type: cell-based, Pseudomonas aeruginosa
[1] = system: drug-resistant GNBs such as Pseudomonas aeruginosa, Escherichia coli, and Acinetobacter baumannii; test: Growth inhibition of drug-resistant GNBs; assay type: cell-based; conditions: in words; E. coli species, A. baumannii, P. aeruginosa / gram-negative bacteria
[2] = range stated jointly for MRSA and E. coli (ATCC 25922)

O=[N+]([O-])c1sccc1S(=O)(=O)F [compound 1, 2-nitrothiophene-3-sulfonyl fluoride]
MICs (E. coli (KAN); E. coli (KAN)): 0.66 µg/mL
MICs (E. coli (AMP)): 10.6 µg/mL
MICs (E. coli SFGH 207): 42 µg/mL
MICs (E. coli ATCC25922; E. coli ATCC25922): 1.32 µg/mL
MIC (E. coli ATCC25922; [2]): 1 to 5 mg/L
MICs (MRSA; MRSA): 5.28 µg/mL
MIC (MRSA; [2]): 1 to 5 mg/L
MICs (A. baumannii (Sensitive)): 21 µg/mL
MICs (A. baumannii (Resistant)): 42 µg/mL
MICs (P. aeruginosa SFGH 266): 42 µg/mL
MICs (P. aeruginosa SFGH 427): 84 µg/mL
antibacterial activity [1]: active

O=C1CN(/N=C/c2ccc([N+](=O)[O-])o2)C(=O)N1 [nitrofurantoin 7, nitrofurantoin, reference compound]
MIC (E. coli (KAN); Escherichia coli, read-out: MICs): 0.37 mg/L (≈ 1.55 µM)
MIC (E. coli (AMP); Escherichia coli): 6 mg/L (≈ 25.2 µM)
MIC (E. coli SFGH 207; Escherichia coli, SFGH207): 6 mg/L (≈ 25.2 µM)
MIC (E. coli ATCC25922; Escherichia coli, ATCC25922, range stated jointly for MRSA and E. coli (ATCC 25922), read-out: MIC): 5 to 12 mg/L (≈ 21 to 50.4 µM)
MIC (E. coli ATCC25922; Escherichia coli, E. coli ATCC25922, read-out: MICs): 3 mg/L (≈ 12.6 µM)
MIC (MRSA; Staphylococcus aureus, ATCC 25922 / MRSA, range stated jointly for MRSA and E. coli (ATCC 25922), read-out: MIC): 5 to 12 mg/L (≈ 21 to 50.4 µM)
MIC (MRSA; Staphylococcus aureus, MRSA, read-out: MICs): 12 mg/L (≈ 50.4 µM)
MIC (A. baumannii (Sensitive); Acinetobacter baumannii): > 95 mg/L
MIC (A. baumannii (Resistant); Acinetobacter baumannii): > 95 mg/L
MIC (P. aeruginosa SFGH 266; Pseudomonas aeruginosa, SFGH266): > 95 mg/L
MIC (P. aeruginosa SFGH 427; Pseudomonas aeruginosa, SFGH427): > 95 mg/L
